Assay results from patent US20260062422A1 (Halda Therapeutics OpCo, Inc., priority 2022, published 2026).

Experiments:
[1] = test system: T-Rex 293 cell line SC3 cells having increased expression of androgen receptor protein due to exposure to doxycycline; test: Cellular growth inhibition, T-Rex 293 SC3 cells with doxycycline (androgen receptor induced), CellTiter-Glo; type: cell-based; settings: T-Rex 293 SC3 cells with 10 ng/mL doxycycline (increased androgen receptor expression)
How it was run: (§1)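 Luminescence read-out (CellTiter-Glo 2.0) after 72 h compound exposure; GI50 by four-parameter nonlinear regression, baseline set at zero luminescence. SC3 cells, a doxycycline-inducible wild-type AR clone of T-Rex 293, were cultured ±10 ng/mL doxycycline in charcoal-dextran FBS medium.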

[2] = test system: T-Rex 293 cell line SC3 cells lacking increased expression of androgen receptor protein; test: Cellular growth inhibition, T-Rex 293 SC3 cells without doxycycline, CellTiter-Glo; type: cell-based; settings: T-Rex 293 SC3 cells not exposed to doxycycline, CellTiter-Glo 2.0
How it was run: as §1

VCaP cells = test: Cellular growth inhibition assay for VCaP cells, CellTiter-Glo; type: cell-based, human; settings: 72 hours treatment, CellTiter-Glo 2.0
How it was run: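 GI50 values come from four-parameter curve fits of luminescence data normalized to a zero baseline. Compound, in medium with 0.5% DMSO, was added one day after plating and left for 72 h before CellTiter-Glo 2.0 addition.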

T47D cells = test: Cellular growth inhibition assay for T47D cells, CellTiter-Glo; type: cell-based, human; settings: 72 hours treatment, CellTiter-Glo 2.0 cell viability
How it was run: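 Growth inhibition as GI50, fitted with four parameters to CellTiter-Glo luminescence after 72 h of compound exposure (0.5% DMSO). Cells were T47D, grown in insulin-supplemented (0.2 units/mL) DMEM with 10% FBS and treated one day post-seeding.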

| GI50 (VCaP cells; Homo sapiens, VCaP, 72 h) [µM] | GI50 (T47D cells; Homo sapiens, T47D, 72 h) [µM] | GI50 (VCaP cells) [µM] | GI50 (T47D cells) [µM] | Structure (SMILES) | GI50 ([1]; 72 h) [µM] | GI50 ([2]; 72 h) [µM] | GI50 ([1]; 72 hours) [µM] | GI50 ([2]; 72 hours) [µM] |
| --- | --- | --- | --- | --- | --- | --- | --- | --- |
| < 0.5 | < 0.5 | – | – | Cc1sc2c(c1C)C(c1ccc(CCN3CC[C@@]4(C3)CN(c3ncc(C(=O)N[C@H]5C(C)(C)[C@H](Oc6ccc(C#N)c(Cl)c6)C5(C)C)cn3)CC(F)(F)C4)cc1)=N[C@@H](Cc1ncco1)c1nnc(C)n1-2 [Compound I-425] | < 0.5 | > 3 | – | – |
| < 0.5 | 0.5 to 1.5 | – | – | Cc1sc2c(c1C)C(c1ccc(O[C@H]3CO[C@@]4(CCCN(c5ncc(C(=O)N[C@H]6C(C)(C)[C@H](Oc7ccc(C#N)c(Cl)c7)C6(C)C)cn5)C4)C3)cc1)=N[C@@H](Cc1ncco1)c1nnc(C)n1-2 [Compound I-186] | < 0.5 | < 0.5 | – | – |
| < 0.5 | > 3 | – | – | Cc1sc2c(c1C)C(c1ccc(-c3ccsc3OC3CCN(c4ncc(C(=O)N[C@H]5C(C)(C)[C@H](Oc6ccc(C#N)c(Cl)c6)C5(C)C)cn4)CC3)cc1)=N[C@@H](Cc1ncco1)c1nnc(C)n1-2 [Compound I-444] | < 0.5 | > 3 | – | – |
| < 0.5 | < 0.5 | – | – | Cc1sc2c(c1C)C(c1ccc(CCN3CC[C@]4(C3)CN(c3ncc(C(=O)N[C@H]5C(C)(C)[C@H](Oc6ccc(C#N)c(Cl)c6)C5(C)C)cn3)CCO4)cc1)=N[C@@H](Cc1ncco1)c1nnc(C)n1-2 [Compound I-242] | < 0.5 | < 0.5 | – | – |
| < 0.5 | > 3 | – | – | CC[C@@H]1N=C(c2ccc(CC3CC4(CCN(c5ncc(C(=O)N[C@H]6C(C)(C)[C@H](Oc7ccc(C#N)c(Cl)c7)C6(C)C)cn5)CC4)C3)cc2)c2c(sc(C)c2C)-n2c(C)nnc21 [Compound I-596] | < 0.5 | > 3 | – | – |
| < 0.5 | < 0.5 | – | – | Cc1sc2c(c1C)C(c1ccc(C[C@H]3CCCN(c4ncc(C(=O)N[C@H]5C(C)(C)[C@H](Oc6ccc(C#N)c(Cl)c6)C5(C)C)cn4)C3)cc1)=N[C@@H](Cc1ncco1)c1nnc(C)n1-2 [Compound I-297] | < 0.5 | 0.5 to 1.5 | – | – |
| < 0.5 | < 0.5 | – | – | CCNC(=O)C[C@@H]1N=C(c2ccc(N3CCC(CN4CCN(c5ncc(C(=O)N[C@H]6C(C)(C)[C@H](Oc7ccc(C#N)c(Cl)c7)C6(C)C)cn5)CC4)CC3)cc2)c2c(sc(C)c2C)-n2c(C)nnc21 [Compound I-109] | < 0.5 | 0.5 to 1.5 | – | – |
| > 3 | 1.5 to 3 | – | – | Cc1sc2c(c1C)C(c1ccc(C(=O)N3CC[C@]4(CCCN(c5ncc(C(=O)N[C@H]6C(C)(C)[C@H](Oc7ccc(C#N)c(Cl)c7)C6(C)C)cn5)C4)C3)cc1)=N[C@@H](Cc1ncco1)c1nnc(C)n1-2 [Compound I-258] | < 0.5 | > 3 | – | – |
| < 0.5 | < 0.5 | – | – | Cc1sc2c(c1C)C(c1ccc(C[C@H]3CC[C@@H]4CN(c5ncc(C(=O)N[C@H]6C(C)(C)[C@H](Oc7ccc(C#N)c(Cl)c7)C6(C)C)cn5)CCN4C3)cc1)=C[C@H](Cc1ncco1)c1nnc(C)n1-2 [Compound I-306] | < 0.5 | < 0.5 | – | – |
| < 0.5 | < 0.5 | – | – | Cc1sc2c(c1C)C(c1ccc(CCCOC3CCN(c4ncc(C(=O)N[C@H]5C(C)(C)[C@H](Oc6ccc(C#N)c(Cl)c6)C5(C)C)cn4)CC3)cc1)=N[C@H](Cc1ccccn1)c1nnc(C)n1-2 [Compound I-213] | < 0.5 | > 3 | – | – |
| < 0.5 | < 0.5 | – | – | Cc1sc2c(c1C)C(c1ccc(O[C@@H]3CCOC34CN(c3ncc(C(=O)N[C@H]5C(C)(C)[C@H](Oc6ccc(C#N)c(Cl)c6)C5(C)C)cn3)C4)cc1)=N[C@@H](Cc1ncco1)c1nnc(C)n1-2 [Compound I-184] | < 0.5 | < 0.5 | – | – |
| < 0.5 | < 0.5 | – | – | Cc1sc2c(c1C)C(c1ccc(O[C@@H]3CCC4(CCN(c5ncc(C(=O)N[C@H]6C(C)(C)[C@H](Oc7ccc(C#N)c(Cl)c7)C6(C)C)cn5)C4)C3)cc1)=N[C@@H](Cc1ncco1)c1nnc(C)n1-2 (some centres unmarked) [Compound I-177] | < 0.5 | < 0.5 | – | – |
| < 0.5 | < 0.5 | – | – | Cc1sc2c(c1C)C(c1ccc([C@H]3CCCN(c4ncc(C(=O)N[C@H]5C(C)(C)[C@H](Oc6ccc(C#N)c(Cl)c6)C5(C)C)cn4)C3)cc1)=N[C@@H](Cc1ncco1)c1nnc(C)n1-2 [Compound I-302] | < 0.5 | 0.5 to 1.5 | – | – |
| > 3 | > 3 | – | – | Cc1sc2c(c1C)C(c1ccc(C(=O)N3CCN(CCc4ncc(C(=O)N[C@H]5C(C)(C)[C@H](Oc6ccc(C#N)c(Cl)c6)C5(C)C)cn4)CC3)cc1)=N[C@@H](Cc1ncco1)c1nnc(C)n1-2 [Compound I-333] | > 3 | > 3 | – | – |
| < 0.5 | < 0.5 | – | – | Cc1sc2c(c1C)C(c1ccc(C#CCN3CCN(c4ncc(C(=O)N[C@H]5C(C)(C)[C@H](Oc6ccc(C#N)c(Cl)c6)C5(C)C)cn4)CC3)cc1)=N[C@@H](Cc1ncco1)c1nnc(C)n1-2 [Compound I-56] | < 0.5 | < 0.5 | – | – |

The remaining lines, values behind:

| Structure (SMILES) | GI50 (VCaP cells; Homo sapiens, VCaP, 72 h) [µM] | GI50 (T47D cells; Homo sapiens, T47D, 72 h) [µM] | GI50 (VCaP cells) [µM] | GI50 (T47D cells) [µM] | GI50 ([1]; 72 h) [µM] | GI50 ([2]; 72 h) [µM] | GI50 ([1]; 72 hours) [µM] | GI50 ([2]; 72 hours) [µM] |
| --- | --- | --- | --- | --- | --- | --- | --- | --- |
| Cc1sc2c(c1C)C(c1ccc(C3CN(C(=O)C4CCN(c5ncc(C(=O)N[C@H]6C(C)(C)[C@H](Oc7ccc(C#N)c(Cl)c7)C6(C)C)cn5)CC4)C3)cc1)=N[C@@H](C)c1nnc(C)n1-2 [Compound I-590] | < 0.5 | < 0.5 | – | – | < 0.5 | < 0.5 | – | – |
| Cc1sc2c(c1C)C(c1ccc(CCC[C@@H]3CCCN(c4ncc(C(=O)N[C@H]5C(C)(C)[C@H](Oc6ccc(C#N)c(Cl)c6)C5(C)C)cn4)C3)cc1)=N[C@@H](C)c1nnc(C)n1-2 [Compound I-353] | > 3 | > 3 | – | – | < 0.5 | > 3 | – | – |
| Cc1sc2c(c1C)C(c1ccc(OC[C@H]3C[C@@]4(CCCN(c5ncc(C(=O)N[C@H]6C(C)(C)[C@H](Oc7ccc(C#N)c(Cl)c7)C6(C)C)cn5)C4)C3)cc1)=N[C@@H](C)c1nnc(C)n1-2 [Compound I-351] | < 0.5 | > 3 | – | – | < 0.5 | > 3 | – | – |
| CC[C@@H]1N=C(c2ccc(OC3CC4(C3)CC3(CCN(c5ncc(C(=O)N[C@H]6C(C)(C)[C@H](Oc7ccc(C#N)c(Cl)c7)C6(C)C)cn5)CC3)C4)cc2)c2c(sc(C)c2C)-n2c(C)nnc21 [Compound I-606] | < 0.5 | > 3 | – | – | < 0.5 | > 3 | – | – |
| CCNC(=O)C[C@@H]1N=C(c2ccc(N3CCC(OC4CCN(c5ncc(C(=O)N[C@H]6C(C)(C)[C@H](Oc7ccc(C#N)c(Cl)c7)C6(C)C)cn5)CC4)C3)cc2)c2c(sc(C)c2C)-n2c(C)nnc21 (some centres unmarked) [Compound I-126] | 0.5 to 1.5 | < 0.5 | – | – | < 0.5 | 0.5 to 1.5 | – | – |
| Cc1sc2c(c1C)C(c1ccc(OC3CC4(CCN(c5ncc(C(=O)N[C@H]6C(C)(C)[C@H](Oc7ccc(C#N)c(Cl)c7)C6(C)C)cn5)CC4)C3)cc1)=NC(C(F)(F)F)c1nnc(C)n1-2 (some centres unmarked) [Compound I-601] | – | – | < 0.5 | > 3 | – | – | > 3 | > 3 |
| Cc1sc2c(c1C)C(c1ccc(C#CC3CC4(C3)CN(c3ncc(C(=O)N[C@H]5C(C)(C)[C@H](Oc6ccc(C#N)c(Cl)c6)C5(C)C)cn3)C4)cc1)=NC1(CC1)c1nnc(C)n1-2 [Compound I-462] | < 0.5 | 0.5 to 1.5 | – | – | < 0.5 | 0.5 to 1.5 | – | – |
| Cc1sc2c(c1C)C(c1ccc(N3CCC(C4CCN(c5cnc(C(=O)N[C@H]6C(C)(C)[C@H](Oc7ccc(C#N)c(Cl)c7)C6(C)C)cn5)CC4)CC3)cc1)=N[C@@H](C)c1nnc(C)n1-2 [Compound I-437] | > 3 | < 0.5 | – | – | < 0.5 | > 3 | – | – |
| COC[C@@H]1N=C(c2ccc(OC3CC4(CCN(c5ncc(C(=O)N[C@H]6C(C)(C)[C@H](Oc7ccc(C#N)c(Cl)c7)C6(C)C)cn5)CC4)C3)cc2)c2c(sc(C)c2C)-n2c(C)nnc21 [Compound I-565] | < 0.5 | 1.5 to 3 | – | – | < 0.5 | > 3 | – | – |
| Cc1sc2c(c1C)C(c1ccc(OC3CC4(C3)CC3(CCN(c5ncc(C(=O)N[C@H]6C(C)(C)[C@H](Oc7ccc(C#N)c(Cl)c7)C6(C)C)c(Cl)n5)CC3)C4)cc1)=N[C@@H](Cc1ncco1)c1nnc(C)n1-2 [Compound I-672, 4-chloro-N-((1r,3r)-3-(3-chloro-4-cyanophenoxy)-2,2,4,4-tetramethylcyclobutyl)-2-(2-(4-((S)-2,3,9-trimethyl-6-(oxazol-2-ylmethyl)-6H-thieno[3,2-f][1,2,4]triazolo[4,3-a][1,4]diazepin-4-yl)phenoxy)-9-azadispiro[3.1.56.14]dodecan-9-yl)pyrimidine-5-carboxamide] | < 0.5 | < 0.5 | – | – | > 3 | > 3 | – | – |
| Cc1sc2c(c1C)C(c1ccc(OC3CCN(C4CCN(c5ncc(C(=O)N[C@H]6C(C)(C)[C@H](Oc7ccc(C#N)c(Cl)c7)C6(C)C)cn5)CC4)CC3)cc1)=N[C@@H](C)c1nnc(C)n1-2 [Compound I-325] | > 3 | 0.5 to 1.5 | – | – | < 0.5 | 1.5 to 3 | – | – |
